Assay results taken from patent US10065973B2, “Substituted aminothiazolopyrimidinedione for the treatment and prophylaxis of virus infection” (Hoffmann-La Roche Inc., priority 2016, dated 2018).

Test system: human hepatocytes
Test: Metabolic conversion of prodrugs to active form in human hepatocytes
Assay type: in vitro ADME
Conditions: active metabolites Example 10-A and penciclovir, respectively
Excerpt: Metabolism of Prodrugs: Compounds of Formula (II) A study was undertaken to evaluate the metabolic conversion of prodrugs, compounds of formula (II) or (IIa), to compounds of formula (I) or (Ia) of the present invention. The produgs, compounds of formula (II) or (IIa), can be metabolized to the active compound of formula (I) or (Ia) and other compounds of the invention in the body if they are served as prodrugs. Hepatocytes are often used to assess the degree of metabolic conversion of prodrugs in the body of animal or human. A study was undertaken to evaluate the metabolic conversion of prodrug Example 21, Example 22, Example 23, Example 24, Example 25 and Example 26, to the corresponding active form, Example 10-A, in the presence of human hepatocytes. The formation of active form, Example 10-A, was monitored in the study. For comparison, the metabolic conversion of famciclovir to penciclovir was also assessed. Cryopreserved hepatocytes plating medium (Cat.#: PY-HMD-03) was purchased from RILD Research Institute for Liver Diseases (Shanghai) Co. Ltd. Cryopreserved human hepatocyte (Cat.#: X008005, Lot#:VRR) was purchased from BioreclamationIVT (Baltimore, Md.). The stock hepatocyte suspension was prepared from cryopreserved hepatocytes in plating medium at the concentration of 1.8×10^6 cells/mL. Compounds were dissolved in DMSO to make 10 mM stock solutions. 10 μL of the stock solution was diluted to 990 μL plating medium to get a 100 μM working solution. Reaction suspensions were prepared in 24-well cell culture plate by mixing 200 μL of hepatocytes suspension (human) and 200 μL of working solution. The final incubation contained 0.9×10^6 cells/mL and 50 μM compound. The above mixtures were incubated at 37° C. in a humidified 5% CO2 atmosphere, with a 900 rpm shaking. After 180 min of incubation, 200 μL of the incubation mixture was transferred to 1.5 mL tube and quenched with 400 μL stop solution (ice-cold acetonitrile with 0.2 μM Tolbutamide as internal standard). The samples were centrifuged at 14000 rpm for 10 minutes and the resultant supernatants were subjected to LC-MS/MS analysis. The calibration curves were prepared in the following way. To a 200 μL of cell suspension (cell density of 1.8 million cells/mL), 198 μL of hepatocyte plating medium and 2 μL of the appropriate concentration of the compound in DMSO were added. Samples were mixed thoroughly and 200 μL of the mixture was transferred to 400 μL of the stop solution (see above). The standard curve range is from 1 μM to 25 μM. The compounds were quantified on an API5500 […] instrument in the ESI-Positive MRM mode.

SMILES | metabolic conversion to active metabolite in human hepatocytes
CC[C@H](O)[C@@H]1C[C@@H]([C@@H](C)OC(C)=O)[C@H](n2c(=O)sc3cnc(N)nc32)O1 [Example 21, [(1R)-1-[(2R,3S,5S)-2-(5-Amino-2-oxo-thiazolo[4,5-d]pyrimidin-3-yl)-5-[(1S)-1-hydroxypropyl]tetrahydrofuran-3-yl]ethyl] acetate] | metabolized to yield the corresponding active metabolites
CC[C@H](OC(C)=O)[C@@H]1C[C@@H]([C@@H](C)O)[C@H](n2c(=O)sc3cnc(N)nc32)O1 [Example 22, [(1S)-1-[(2S,4S,5R)-5-(5-Amino-2-oxo-thiazolo[4,5-d]pyrimidin-3-yl)-4-[(1R)-1-hydroxyethyl]tetrahydrofuran-2-yl]propyl] acetate] | metabolized to yield the corresponding active metabolites
CC[C@H](O)[C@@H]1C[C@@H]([C@@H](C)OC(=O)C(C)C)[C@H](n2c(=O)sc3cnc(N)nc32)O1 [Example 23, [(1R)-1-[(2R,3S,5S)-2-(5-Amino-2-oxo-thiazolo[4,5-d]pyrimidin-3-yl)-5-[(1S)-1-hydroxypropyl]tetrahydrofuran-3-yl]ethyl] 2-methylpropanoate] | metabolized to yield the corresponding active metabolites
CC[C@H](O)[C@@H]1C[C@@H]([C@@H](C)OC(=O)C(C)(C)C)[C@H](n2c(=O)sc3cnc(N)nc32)O1 [Example 24, [(1R)-1-[(2R,3S,5S)-2-(5-Amino-2-oxo-thiazolo[4,5-d]pyrimidin-3-yl)-5-[(1S)-1-hydroxypropyl]tetrahydrofuran-3-yl]ethyl] 2,2-dimethylpropanoate] | metabolized to yield the corresponding active metabolites
CC[C@H](O)[C@@H]1C[C@@H]([C@@H](C)OC(=O)CC(C)C)[C@H](n2c(=O)sc3cnc(N)nc32)O1 [Example 25, [(1R)-1-[(2R,3S,5S)-2-(5-Amino-2-oxo-thiazolo[4,5-d]pyrimidin-3-yl)-5-[(1S)-1-hydroxypropyl]tetrahydrofuran-3-yl]ethyl] 3-methylbutanoate] | metabolized to yield the corresponding active metabolites
CCOC(=O)O[C@H](C)[C@@H]1C[C@@H]([C@@H](O)CC)O[C@H]1n1c(=O)sc2cnc(N)nc21 [Example 26, [(1R)-1-[(2R,3S,5S)-2-(5-Amino-2-oxo-thiazolo[4,5-d]pyrimidin-3-yl)-5-[(1S)-1-hydroxypropyl]tetrahydrofuran-3-yl]ethyl] ethyl carbonate] | metabolized to yield the corresponding active metabolites
CC(=O)OCC(CCn1cnc2cnc(N)nc21)COC(C)=O [Famciclovir, famciclovir, reference compound] | metabolized to yield the corresponding active metabolites
